The text below walks through data of patent EP0333004A2, “Light sensitive diazonium compounds, process for their preparation and their use” (priority 1988, dated 1989).

Data set [1] is described as follows: Combustion number (Brennziffer, BZ), safety characteristic. The conditions noted are these: solid isolated diazonium salt form. The class given is physicochemical.
Data set [2] in a line: Differential thermal analysis (DTA), violence of decomposition. It counts as physicochemical. The settings on record: characterises the violence of decomposition.
The nature of another data set: Impact sensitivity. The class given is physicochemical.
Data set [3] in a line: Onset of exothermic decomposition (EZ). The class given is physicochemical. The conditions noted are these: for Exotherme Zer-setzung (EZ): temperature at which exothermic decomposition begins.
The next data set is described as follows: Solubility in water. The settings on record: 20 °C. It counts as physicochemical.
Data set [4] is described as follows: Dust explosion class (ST), safety characteristic. It counts as physicochemical. The conditions noted are these: solid isolated diazonium salt form.
Another data set can be described thus: Explosion hazard. It counts as physicochemical.
The conditions of data set [5]: species and route not given; cited from earlier work.

On to “4-N,N-Dimethylaminobenzoldiazonium-sulfosalicylat [Sulfosalicylat R1=R2=CH3 R3 = H]”, for which the “Brenn-ziffer (BZ)” value in data set [1] was 3. The “Differential-thermoanalyse (DTA)” value in data set [2] was -490 kJ/kg. Besides, the schlagemp-findlich result in “Impact sensitivity” is on record as “nein”. Moreover, the “exotherme Zersetzung, höher als bei dem entsprechenden Zinkchlorid-Doppelsalz” value in data set [3] (difference to the corresponding zinc chloride double salt) was found to be 40 °C. In data set [3], the “Exotherme Zer-setzung (EZ)” value came out at 140 °C. Further, in the data set “Solubility in water”, the “Löslichkeit in Wasser” value is listed as 10,4 g/l. Moreover, the “Staubexplo-sionsklasse (ST)” value in data set [4] was determined as 1. The explosions-gefährlich entry in the data set “Explosion hazard” is “nein”.

Regarding “4-N,N-Dimethylaminobenzoldiazoniumchlorzinkat [ZnCl2 stabilisiert R1=R2=CH3 R3 = H, reference compound]”, the “Brenn-ziffer (BZ)” value in data set [1] amounted to 3. Moreover, the “Differential-thermoanalyse (DTA)” value in data set [2] was -720 kJ/kg. In addition, the schlagemp-findlich entry in “Impact sensitivity” was “nein”. Further, in data set [3], the “Exotherme Zer-setzung (EZ)” value turned out to be 100 °C. Moreover, the “Staubexplo-sionsklasse (ST)” value in data set [4] is recorded as 0. Also, in the data set “Explosion hazard”, the explosions-gefährlich result is reported as “nein”.

On to `CN(C)c1ccc([N+]#N)cc1` [4-N,N-Dimethylaminobenzoldiazonium-sulfoisophthalat, reference compound], for which the solubility in the data set “Solubility in water” (read-out: Löslichkeit in Wasser) was 3800 µg/mL.

In the case of `Cc1cc([N+]#N)ccc1N1CCCC1` [Sulfosalicylat R1,R2=(CH2)4 R3 = CH3, 3-Methyl-4-N-pyrrolidinobenzoldiazonium-sulfosalicylat], the “Brenn-ziffer (BZ)” value in data set [1] was determined as 3. In addition, in data set [2], the “Differential-thermoanalyse (DTA)” value was -400 kJ/kg. In the data set “Impact sensitivity”, the schlagemp-findlich entry was “nein”. The “Exotherme Zer-setzung (EZ)” value in data set [3] turned out to be 120 °C. Also, in data set [4], the “Staubexplo-sionsklasse (ST)” value amounted to 1. Moreover, in the data set “Explosion hazard”, the explosions-gefährlich result was “nein”.

As to `O=C(O)c1cc(S(=O)(=O)O)ccc1O` [Sulfosalicylsäure], the “LD₅₀-Wert (LD - Letale Dosis)” value in data set [5] is 2450 mg/kg.
